Read-outs that look alike come from different tables or passages of the source.
Legend:
SW48 cells = assay: Proliferation assay SW48 (CellTiterGlo, 96 hours)
DLD1-WRN-KO cells = assay: Proliferation assay DLD1-WRN-KO (CellTiterGlo, 96 hours; off-target effects); conditions: read-out: Proliferation Assay DLD1-WRN-KO (GI50)
WRN helicase = WRN helicase (Homo sapiens (Human), UniProt Q14191); assay: In vitro enzymatic activity assay on WRN helicase (DNA dependent ATPase assay, ADP-Glo); assay type: biochemical; conditions: geometric means of at least 2 determinations; read-out: WRN ATPase Activity (IC50)
Chain of WRN helicase (Q14191 517-1238): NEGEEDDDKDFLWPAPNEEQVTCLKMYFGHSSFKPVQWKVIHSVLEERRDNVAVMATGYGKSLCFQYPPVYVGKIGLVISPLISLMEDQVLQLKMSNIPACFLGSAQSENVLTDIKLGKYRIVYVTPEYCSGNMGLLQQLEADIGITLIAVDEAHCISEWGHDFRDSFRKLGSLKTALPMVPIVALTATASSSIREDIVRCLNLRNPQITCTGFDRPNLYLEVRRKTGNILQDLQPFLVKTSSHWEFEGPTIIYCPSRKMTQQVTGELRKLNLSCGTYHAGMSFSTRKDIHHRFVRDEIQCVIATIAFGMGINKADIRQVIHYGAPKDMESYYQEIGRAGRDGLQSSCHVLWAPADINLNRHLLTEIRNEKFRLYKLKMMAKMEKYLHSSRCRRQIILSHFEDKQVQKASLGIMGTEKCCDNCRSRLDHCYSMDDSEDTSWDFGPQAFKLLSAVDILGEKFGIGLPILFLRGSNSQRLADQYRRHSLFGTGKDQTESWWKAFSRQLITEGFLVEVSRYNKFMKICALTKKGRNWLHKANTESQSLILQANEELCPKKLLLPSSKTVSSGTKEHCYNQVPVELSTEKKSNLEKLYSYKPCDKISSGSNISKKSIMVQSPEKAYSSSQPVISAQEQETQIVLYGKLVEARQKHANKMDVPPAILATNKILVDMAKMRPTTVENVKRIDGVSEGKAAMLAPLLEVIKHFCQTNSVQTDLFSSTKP
From the text: An ATPase assay was set up to measure the DNA dependent ATP hydrolysis activity of WRN helicase. This assay was used also to assess the inhibition properties of compounds of the invention on DNA dependent WRN ATPase activity.
The core helicase motif of the WRN protein (aa N517-P1238) was produced for this assay (protein production as described above). […] The ADP-Glo assay kit (Promega, Madison, WI) allowing the quantification of ADP produced in ATP hydrolysis reactions was used for setting up this assay.
Time course experiments were first performed in order to determine the best enzymatic assay conditions (including buffer conditions, reaction time and concentrations of protein, ATP and DNA substrates). A typical reaction consists of 10 nM WRN protein, 0.2 nM FLAP26, and 300 micromolar ATP in the following assay buffer: 30 mM Tris pH7.5, 2 mM MgCl2, 0.02% BSA, 50 mM NaCl, 0.1% pluronic F127 prepared in DNAse free water. To evaluate the inhibition properties of compounds of the invention, serial dilutions were prepared in DMSO (10 half log dilutions from a 10 mM DMSO solution). […] The reaction was started by addition of 2.5 microliters of FLAP26 at 0.4 nM and incubated for 30 minutes at room temperature. The reaction was stopped with the addition of 5 microliters of the first ADP-Glo reagent and incubated for one hour to remove the excess amount of ATP. Afterwards, 10 microliters of ATP detection reagent was added and incubated for an additional hour before reading. Luminescence output was recorded using Tecan 1000 reader, with 5 minutes delay before reading. Each concentration of compound was tested in duplicates in the assay plate.
Following normalization of activity values for the wells to % inhibition (% inhibition=[(high control-sample)/(high control-low control)]×100), IC50 fitting was carried out from the duplicate determinations present on each plate according to [4]. Data analysis can also be carried out using commercially available software designed to derive IC50 values using 4-parameter fits (e.g. GraphPad Prism, XL fit). The reported IC50 values are the geometrical means of at least 2 independent replicates.

[1] = read-out: Proliferation Assay SW48 (GI50), SW48 cell line, geometric means of at least 2 determinations
[2] = DLD1-WRN-KO cell line, geometric means of at least 2 determinations
[3] = Homo sapiens, SW48, read-out: Proliferation Assay SW48 (GI50)

| Structure (SMILES) | GI50 (SW48 cells; [1]) | GI50 (DLD1-WRN-KO cells; [2]) | IC50 (WRN helicase) | GI50 (SW48 cells; [3]) | GI50 (DLD1-WRN-KO cells; Homo sapiens) |
| --- | --- | --- | --- | --- | --- |
| CCc1c(N2CCN(C(=O)c3ncccc3O)CC2)c(=O)n2nc(C3=CC[C@H](OC)CC3)nc2n1CC(=O)Nc1ccc(C(F)(F)F)cc1C (single isomer, unassigned) [Example 80b, ((R)-2-(5-ethyl-6-(4-(3-hydroxypicolinoyl)piperazin-1-yl)-2-(4-methoxycyclohex-1-en-1-yl)-7-oxo-[1,2,4]triazolo[1,5-a]pyrimidin-4(7H)-yl)-N-(2-methyl-4-(trifluoromethyl)phenyl)acetamide) or ((S)-2-(5-ethyl-6-(4-(3-hydroxypicolinoyl)piperazin-1-yl)-2-(4-methoxycyclohex-1-en-1-yl)-7-oxo-[1,2,4]triazolo[1,5-a]pyrimidin-4(7H)-yl)-N-(2-methyl-4-(trifluoromethyl)phenyl)acetamide)] | 60 nM | > 10000 nM | 80 nM |  |  |
| CCc1c(N2CCN(C(=O)c3nc(C)ccc3O)CC2)c(=O)n2nc(C3=CCOCC3)nc2n1CC(=O)Nc1ccc(C(F)(F)F)cc1 [Example 74, 2-(2-(3,6-dihydro-2H-pyran-4-yl)-5-ethyl-6-(4-(3-hydroxy-6-methylpicolinoyl)piperazin-1-yl)-7-oxo-[1,2,4]triazolo[1,5-a]pyrimidin-4(7H)-yl)-N-(4-(trifluoromethyl)phenyl)acetamide] |  |  | 50 nM | 70 nM | > 10000 nM |
| CCc1c(N2CCN(C(=O)c3nc(C)ncc3O)CC2)c(=O)n2nc(C3=CCOCC3)nc2n1CC(=O)Nc1ccc(C(F)(F)F)cc1C [Example 68, 2-(2-(3,6-dihydro-2H-pyran-4-yl)-5-ethyl-6-(4-(5-hydroxy-2-methylpyrimidine-4-carbonyl)piperazin-1-yl)-7-oxo-[1,2,4]triazolo[1,5-a]pyrimidin-4(7H)-yl)-N-(2-methyl-4-(trifluoromethyl)phenyl)acetamide] |  |  | 120 nM | 270 nM | > 10000 nM |
| CCc1c(N2CCN(C(=O)c3nccc(Cl)c3O)CC2)c(=O)n2nc(C3=CCOCC3)nc2n1CC(=O)Nc1ccc(C(F)(F)F)cc1C [Example 61, 2-(6-(4-(4-chloro-3-hydroxypicolinoyl)piperazin-1-yl)-2-(3,6-dihydro-2H-pyran-4-yl)-5-ethyl-7-oxo-[1,2,4]triazolo[1,5-a]pyrimidin-4(7H)-yl)-N-(2-methyl-4-(trifluoromethyl)phenyl)acetamide] |  |  | 50 nM | 50 nM | > 10000 nM |
| CCc1c(N2CCN(C(=O)c3ncccc3O)CC2)c(=O)n2nc(C3=CCCCO3)nc2n1CC(=O)Nc1ccc(C(F)(F)F)cc1 [Example 84, 2-(2-(3,4-dihydro-2H-pyran-6-yl)-5-ethyl-6-(4-(3-hydroxypicolinoyl)piperazin-1-yl)-7-oxo-[1,2,4]triazolo[1,5-a]pyrimidin-4(7H)-yl)-N-(4-(trifluoromethyl)phenyl)acetamide] |  |  | 50 nM | 130 nM | > 10000 nM |
| CCc1c(N2CCN(C(=O)c3ncccc3O)CC2)c(=O)n2nc(C3=CCOCC3)nc2n1CC(=O)Nc1ccc(C(F)(F)F)nc1Cl [Example 45, N-(2-chloro-6-(trifluoromethyl)pyridin-3-yl)-2-(2-(3,6-dihydro-2H-pyran-4-yl)-5-ethyl-6-(4-(3-hydroxypicolinoyl)piperazin-1-yl)-7-oxo-[1,2,4]triazolo[1,5-a]pyrimidin-4(7H)-yl)acetamide] |  |  | 130 nM | 80 nM | > 10000 nM |
| [2H]C1([2H])N(C(=O)c2ncnc(C)c2O)C([2H])([2H])C([2H])([2H])N(c2c(CC)n(CC(=O)Nc3ccc(C(F)(F)F)cc3Cl)c3nc(C4=CCOCC4)nn3c2=O)C1([2H])[2H] [Example 133, N-(2-chloro-4-(trifluoromethyl)phenyl)-2-(2-(3,6-dihydro-2H-pyran-4-yl)-5-ethyl-6-(4-(5-hydroxy-6-methylpyrimidine-4-carbonyl)piperazin-1-yl-2,2,3,3,5,5,6,6-d8)-7-oxo-[1,2,4]triazolo[1,5-a]pyrimidin-4(7H)-yl)acetamide] |  |  |  | 60 nM |  |
| CCc1c(N2CCN(C(=O)c3nccc(Cl)c3O)CC2)c(=O)n2nc(C3=CC[C@H](OC)CC3)nc2n1CC(=O)Nc1ccc(C(F)(F)F)nc1Cl (single isomer, unassigned) [Example 24b] | 50 nM | > 10000 nM | 100 nM |  |  |
| CCc1c(N2CCN(C(=O)c3ncccc3O)CC2)c(=O)n2nc(C3=CCOCC3)nc2n1CC(=O)Nc1cc(Cl)c(C(F)(F)F)cc1C [Example 69, N-(5-chloro-2-methyl-4-(trifluoromethyl)phenyl)-2-(2-(3,6-dihydro-2H-pyran-4-yl)-5-ethyl-6-(4-(3-hydroxypicolinoyl)piperazin-1-yl)-7-oxo-[1,2,4]triazolo[1,5-a]pyrimidin-4(7H)-yl)acetamide] |  |  | 40 nM | 30 nM | 6300 nM |
| CCc1c(N2CCN(C(=O)c3ncnc(C)c3O)[C@@H]3CC[C@@H]32)c(=O)n2nc(C3=CCOCC3)nc2n1CC(=O)Nc1ccc(C(F)(F)F)cc1Cl (single isomer, unassigned) [Example 132] | 490 nM | > 10000 nM | 890 nM |  |  |
| CCc1c(N2CCN(C(=O)c3ncccc3O)CC2)c(=O)n2nc(N3CCOCC3)nc2n1CC(=O)Nc1ccc(C(F)(F)F)nc1Cl [Example 10, N-(2-chloro-6-(trifluoromethyl)pyridin-3-yl)-2-(5-ethyl-6-(4-(3-hydroxypicolinoyl)piperazin-1-yl)-2-morpholino-7-oxo-[1,2,4]triazolo[1,5-a]pyrimidin-4(7H)-yl)acetamide] |  |  | 250 nM | 290 nM | 9900 nM |
| CCc1c(N2CCN(C(=O)c3ncccc3O)CC2)c(=O)n2nc(N3CCOCC3)nc2n1CC(=O)Nc1ccc(C(F)(F)F)cc1F [Example 11, 2-(5-ethyl-6-(4-(3-hydroxypicolinoyl)piperazin-1-yl)-2-morpholino-7-oxo-[1,2,4]triazolo[1,5-a]pyrimidin-4(7H)-yl)-N-(2-fluoro-4-(trifluoromethyl)phenyl)acetamide] |  |  | 110 nM | 380 nM | > 10000 nM |
| CCc1c(N2CCN(C(=O)c3ncccc3O)CC2)c(=O)n2nc(C3=CCCCO3)nc2n1CC(=O)Nc1ccc(C(F)(F)F)cc1C [Example 83, 2-(2-(3,4-dihydro-2H-pyran-6-yl)-5-ethyl-6-(4-(3-hydroxypicolinoyl)piperazin-1-yl)-7-oxo-[1,2,4]triazolo[1,5-a]pyrimidin-4(7H)-yl)-N-(2-methyl-4-(trifluoromethyl)phenyl)acetamide] |  |  | 90 nM | 60 nM | > 10000 nM |
| [2H]C([2H])(C(=O)Nc1ccc(C(F)(F)F)cc1Cl)n1c(CC)c(N2CCN(C(=O)c3ncnc(C)c3O)CC2)c(=O)n2nc(C3=CCOCC3)nc12 [Example 43, N-(2-chloro-4-(trifluoromethyl)phenyl)-2-(2-(3,6-dihydro-2H-pyran-4-yl)-5-ethyl-6-(4-(5-hydroxy-6-methylpyrimidine-4-carbonyl)piperazin-1-yl)-7-oxo-[1,2,4]triazolo[1,5-a]pyrimidin-4(7H)-yl)acetamide-2,2-d2] |  |  |  | 50 nM |  |
| Cc1c(N2CCN(C(=O)c3ncccc3O)CC2)c(=O)n2nc(C3=CCN(C(=O)OC(C)(C)C)CC3)nc2n1CC(=O)Nc1ccc(C(F)(F)F)cc1 [Example 126, tert-butyl 4-(6-(4-(3-hydroxypicolinoyl)piperazin-1-yl)-5-methyl-7-oxo-4-(2-oxo-2-((4-(trifluoromethyl)phenyl)amino)ethyl)-4,7-dihydro-[1,2,4]triazolo[1,5-a]pyrimidin-2-yl)-3,6-dihydropyridine-1(2H)-carboxylate] |  |  | 130 nM |  |  |
| CCc1c(N2CCN(C(=O)c3ncnc(C)c3O)CC2)c(=O)n2nc(C3=CCOCC3)nc2n1CC(=O)Nc1ccc(C(F)(F)F)cc1Cl [Example 42, N-(2-chloro-4-(trifluoromethyl)phenyl)-2-(2-(3,6-dihydro-2H-pyran-4-yl)-5-ethyl-6-(4-(5-hydroxy-6-methylpyrimidine-4-carbonyl)piperazin-1-yl)-7-oxo-[1,2,4]triazolo[1,5-a]pyrimidin-4(7H)-yl)acetamide] |  |  |  | 50 nM |  |
